Data published in patent US20030004172A1, “Fused pyrimidinone matrix metalloproteinase inhibitors” (priority 2001, published 2003).

Biological target: MMP-13CD (catalytic domain of collagenase-3) (Homo sapiens, UniProt P45452)
Test: Thiopeptolide substrate hydrolysis inhibition assay, MMP-13CD
Type: biochemical
Conditions: Table I; thiopeptolide substrate, HEPES pH 7.0, 22° C.; read-out: MMP-13CD IC50
From the text: Thiopeptolide substrates show virtually no decomposition or hydrolysis at or below neutral pH in the absence of a matrix metalloproteinase enzyme.

Compound	IC50
CC(CNC(=O)c1cc2c(=O)n(Cc3ccccc3)c(=O)n(C)c2s1)c1ccccc1 (stereo not drawn) [Example 330, 3-Benzyl-1-methyl-2,4-dioxo-1,2,3,4-tetrahydro-thieno[2,3-d]pyrimidine-6-carboxylic acid (2-phenyl-propyl)-amide]	> 100 µM
COc1cc(CNC(=O)c2cc3c(=O)n(Cc4ccccc4)c(=O)n(C)c3s2)cc(OC)c1OC [Example 331, 3-Benzyl-1-methyl-2,4-dioxo-1,2,3,4-tetrahydro-thieno[2,3-d]pyrimidine-6-carboxylic acid 3,4,5-trimethoxy-benzylamide]	> 100 µM
Cn1c(=O)n(Cc2ccccc2)c(=O)c2cc(C(=O)NCc3cccc(Cl)c3)sc21 [Example 332, 3-Benzyl-1-methyl-2,4-dioxo-1,2,3,4-tetrahydro-thieno[2,3-d]pyrimidine-6-carboxylic acid 3-chloro-benzylamide]	1 µM
COc1cc(CNC(=O)c2cc3c(=O)n(Cc4ccccc4)c(=O)n(C)c3s2)cc(OC)c1 [Example 333, 3-Benzyl-1-methyl-2,4-dioxo-1,2,3,4-tetrahydro-thieno[2,3-d]pyrimidine-6-carboxylic acid 3,5-dimethoxy-benzylamide]	> 100 µM
COc1cccc(CNC(=O)c2cc3c(=O)n(Cc4ccccc4)c(=O)n(C)c3s2)c1OC [Example 334, 3-Benzyl-1-methyl-2,4-dioxo-1,2,3,4-tetrahydro-thieno[2,3-d]pyrimidine-6-carboxylic acid 2,3-dimethoxy-benzylamide]	> 100 µM
Cn1c(=O)n(Cc2ccccc2)c(=O)c2cc(C(=O)NCc3cccc(C(F)(F)F)c3)sc21 [Example 335, 3-Benzyl-1-methyl-2,4-dioxo-1,2,3,4-tetrahydro-thieno[2,3-d]pyrimidine-6-carboxylic acid 3-trifluoromethyl-benzylamide]	0.25 µM
COc1ccccc1CNC(=O)c1cc2c(=O)n(Cc3ccccc3)c(=O)n(C)c2s1 [Example 336, 3-Benzyl-1-methyl-2,4-dioxo-1,2,3,4-tetrahydro-thieno[2,3-d]pyrimidine-6-carboxylic acid 2-methoxy-benzylamide]	30 µM
Cc1ccccc1CNC(=O)c1cc2c(=O)n(Cc3ccccc3)c(=O)n(C)c2s1 [Example 337, 3-Benzyl-1-methyl-2,4-dioxo-1,2,3,4-tetrahydro-thieno[2,3-d]pyrimidine-6-carboxylic acid 2-methyl-benzylamide]	> 100 µM
Cn1c(=O)n(Cc2ccccc2)c(=O)c2cc(C(=O)NCCCCc3ccccc3)sc21 [Example 338, 3-Benzyl-1-methyl-2,4-dioxo-1,2,3,4-tetrahydro-thieno[2,3-d]pyrimidine-6-carboxylic acid (4-phenyl-butyl)-amide]	> 100 µM
Cn1c(=O)n(Cc2ccccc2)c(=O)c2cc(C(=O)NCc3cccnc3)sc21 [Example 339, 3-Benzyl-1-methyl-2,4-dioxo-1,2,3,4-tetrahydro-thieno[2,3-d]pyrimidine-6-carboxylic acid (pyridin-3-ylmethyl)-amide]	0.38 µM
COc1ccc(CNC(=O)c2cc3c(=O)n(Cc4ccccc4)c(=O)n(C)c3s2)cc1 [Example 340, 3-Benzyl-1-methyl-2,4-dioxo-1,2,3,4-tetrahydro-thieno[2,3-d]pyrimidine-6-carboxylic acid 4-methoxy-benzylamide]	0.12 µM
COc1cccc(CCNC(=O)c2cc3c(=O)n(Cc4ccccc4)c(=O)n(C)c3s2)c1 [Example 342, 3-Benzyl-1-methyl-2,4-dioxo-1,2,3,4-tetrahydro-thieno[2,3-d]pyrimidine-6-carboxylic acid[2-(3-methoxy-phenyl)-ethyl]-amide]	> 100 µM
COc1cccc(CNC(=O)c2cc3c(=O)n(Cc4ccccc4)c(=O)n(C)c3s2)c1 [Example 343, 3-Benzyl-1-methyl-2,4-dioxo-1,2,3,4-tetrahydro-thieno[2,3-d]pyrimidine-6-carboxylic acid 3-methoxy-benzylamide]	0.044 µM
Cn1c(=O)n(Cc2ccccc2)c(=O)c2cc(C(=O)NCc3cccs3)sc21 [Example 344, 3-Benzyl-1-methyl-2,4-dioxo-1,2,3,4-tetrahydro-thieno[2,3-d]pyrimidine-6-carboxylic acid (thiophen-2-ylmethyl)-amide]	3.6 µM
Cn1c(=O)n(Cc2ccccc2)c(=O)c2cc(C(=O)NCc3ccccc3Cl)sc21 [Example 345, 3-Benzyl-1-1-methyl-2,4-dioxo-1,2,3,4-tetrahydro-thieno[2,3-d]pyrimidine-6-carboxylic acid 2-chloro-benzylamide]	30 µM
Cc1ccc(CNC(=O)c2cc3c(=O)n(Cc4ccccc4)c(=O)n(C)c3s2)o1 [Example 346, 3-Benzyl-1-methyl-2,4-dioxo-1,2,3,4-tetrahydro-thieno[2,3-d]pyrimidine-6-carboxylic acid (5-methyl-furan-2-ylmethyl)-amide]	9.9 µM
Cn1c(=O)n(Cc2ccccc2)c(=O)c2cc(C(=O)NCC(c3ccccc3)c3ccccc3)sc21 [Example 347, 3-Benzyl-1-methyl-2,4-dioxo-1,2,3,4-tetrahydro-thieno[2,3-d]pyrimidine-6-carboxylic acid (2,2-diphenyl-ethyl)-amide]	16 µM

Compound	IC50
COc1ccccc1CCNC(=O)c1cc2c(=O)n(Cc3ccccc3)c(=O)n(C)c2s1 [Example 348, 3-Benzyl-1-methyl-2,4-dioxo-1,2,3,4-tetrahydro-thieno[2,3-d]pyrimidine-6-carboxylic acid[2-(2-methoxy-phenyl)-ethyl]-amide]	30 µM
Cn1c(=O)n(Cc2ccccc2)c(=O)c2cc(C(=O)NCCc3cccc(C(F)(F)F)c3)sc21 [Example 349, 3-Benzyl-1-methyl-2,4-dioxo-1,2,3,4-tetrahydro-thieno[2,3-d]pyrimidine-6-carboxylic acid[2-(3-trifluoromethyl-phenyl)-ethyl]-amide]	> 100 µM
Cn1c(=O)n(Cc2ccccc2)c(=O)c2cc(C(=O)NCc3ccc(Br)cc3)sc21 [Example 350, 3-Benzyl-1-methyl-2,4-dioxo-1,2,3,4-tetrahydro-thieno[2,3-d]pyrimidine-6-carboxylic acid 4-bromo-benzylamide]	0.93 µM
Cn1c(=O)n(Cc2ccccc2)c(=O)c2cc(C(=O)NCCc3c[nH]c4ccccc34)sc21 [Example 351, 3-Benzyl-1-methyl-2,4-dioxo-1,2,3,4-tetrahydro-thieno[2,3-d]pyrimidine-6-carboxylic acid[2-(1H-indol-3-yl)-ethyl]-amide]	2 µM
Cn1c(=O)n(Cc2ccccc2)c(=O)c2cc(C(=O)NCc3cc(Cl)cc(Cl)c3)sc21 [Example 352, 3-Benzyl-1-methyl-2,4-dioxo-1,2,3,4-tetrahydro-thieno[2,3-d]pyrimidine-6-carboxylic acid 3 ,5-dichloro-benzylamide]	> 100 µM
Cn1c(=O)n(Cc2ccccc2)c(=O)c2cc(C(=O)NC3CCc4ccccc43)sc21 (stereo not drawn) [Example 353, 3-Benzyl-1-methyl-2,4-dioxo-1,2,3,4-tetrahydro-thieno[2,3-d]pyrimidine-6-carboxylic acid indan-1-ylamide]	> 100 µM
Cn1c(=O)n(Cc2ccccc2)c(=O)c2cc(C(=O)NCc3ccco3)sc21 [Example 354, 3-Benzyl-1-methyl-2,4-dioxo-1,2,3,4-tetrahydro-thieno[2,3-d]pyrimidine-6-carboxylic acid (furan-2-ylmethyl)-amide]	30 µM
COc1ccc(CCNC(=O)c2cc3c(=O)n(Cc4ccccc4)c(=O)n(C)c3s2)cc1 [Example 355, 3-Benzyl-1-methyl-2,4-dioxo-1,2,3,4-tetrahydro-thieno[2,3-d]pyrimidine-6-carboxylic acid[2-(4-methoxy-phenyl)-ethyl]-amide]	> 100 µM
COc1ccc(CNC(=O)c2cc3c(=O)n(Cc4ccccc4)c(=O)n(C)c3s2)c(OC)c1 [Example 356, 3-Benzyl-1-methyl-2,4-dioxo-1,2,3,4-tetrahydro-thieno[2,3-d]pyrimidine-6-carboxylic acid 2,4-dimethoxy-benzylamide]	10 µM
Cn1c(=O)n(Cc2ccccc2)c(=O)c2cc(C(=O)NCc3ccc(Cl)cc3)sc21 [Example 357, 3-Benzyl-1-methyl-2,4-dioxo-1,2,3,4-tetrahydro-thieno[2,3-d]pyrimidine-6-carboxylic acid 4-chloro-benzylamide]	0.32 µM
CC(NC(=O)c1cc2c(=O)n(Cc3ccccc3)c(=O)n(C)c2s1)c1ccccc1 (stereo not drawn) [Example 358, 3-Benzyl-1-methyl-2,4-dioxo-1,2,3,4-tetrahydro-thieno[2,3-d]pyrimidine-6-carboxylic acid (1-phenyl-ethyl)-amide]	> 100 µM
Cn1c(=O)n(Cc2ccccc2)c(=O)c2cc(C(=O)NCc3ccc(Cl)c(Cl)c3)sc21 [Example 359, 3-Benzyl-1-methyl-2,4-dioxo-1,2,3,4-tetrahydro-thieno[2,3-d]pyrimidine-6-carboxylic acid 3,4-dichloro-benzylamide]	1 µM
Cn1c(=O)n(Cc2ccccc2)c(=O)c2cc(C(=O)NCc3ccc(F)c(C(F)(F)F)c3)sc21 [Example 360, 3-Benzyl-1-methyl-2,4-dioxo-1,2,3,4-tetrahydro-thieno[2,3-d]pyrimidine-6-carboxylic acid 4-fluoro-3-trifluoromethyl-benzylamide]	0.27 µM
Cn1c(=O)n(Cc2ccccc2)c(=O)c2cc(C(=O)NCCc3ccccn3)sc21 [Example 361, 3-Benzyl-1-methyl-2,4-dioxo-1,2,3,4-tetrahydro-thieno[2,3-d]pyrimidine-6-carboxylic acid (2-pyridin-2-yl-ethyl)-amide]	7.7 µM
Cc1ccc(CCNC(=O)c2cc3c(=O)n(Cc4ccccc4)c(=O)n(C)c3s2)c(C)c1 [Example 362, 3-Benzyl-1-methyl-2,4-dioxo-1,2,3,4-tetrahydro-thieno[2,3-d]pyrimidine-6-carboxylic acid[2-(2,4-dimethyl-phenyl)-ethyl]-amide]	> 100 µM
Cn1c(=O)n(Cc2ccccc2)c(=O)c2cc(C(=O)NCCc3ccc(Cl)cc3Cl)sc21 [Example 363, 3-Benzyl-1-methyl-2,4-dioxo-1,2,3,4-tetrahydro-thieno[2,3-d]pyrimidine-6-carboxylic acid[2-(2,4-dichloro-phenyl)-ethyl]-amide]	30 µM
